Measured values reported in US6441177B1 (Hoffmann-La Roche Inc., priority 1995, dated 2002).
In brackets after ≈: the same amount, converted by molar mass. Read-outs that look alike come from different tables or passages of the source.

Experiments:
[1] = biological target: T1, human liver microsomal 2,3-oxidosqualene-lanosterol cyclase (OSC) (Homo sapiens, UniProt P48449); assay: Inhibition of human liver microsomal 2,3-oxidosqualene-lanosterol cyclase (OSC); assay type: biochemical; conditions: human liver microsomes; for IC50: concentration reducing conversion of MOS into lanosterol to 50% of control
T1 construct: Liver microsomes from a healthy volunteer were prepared in sodium phosphate buffer (pH 7.4); from tissue; host or cells: human liver microsomes from a healthy volunteer
T1 sequence (P48449 1-732): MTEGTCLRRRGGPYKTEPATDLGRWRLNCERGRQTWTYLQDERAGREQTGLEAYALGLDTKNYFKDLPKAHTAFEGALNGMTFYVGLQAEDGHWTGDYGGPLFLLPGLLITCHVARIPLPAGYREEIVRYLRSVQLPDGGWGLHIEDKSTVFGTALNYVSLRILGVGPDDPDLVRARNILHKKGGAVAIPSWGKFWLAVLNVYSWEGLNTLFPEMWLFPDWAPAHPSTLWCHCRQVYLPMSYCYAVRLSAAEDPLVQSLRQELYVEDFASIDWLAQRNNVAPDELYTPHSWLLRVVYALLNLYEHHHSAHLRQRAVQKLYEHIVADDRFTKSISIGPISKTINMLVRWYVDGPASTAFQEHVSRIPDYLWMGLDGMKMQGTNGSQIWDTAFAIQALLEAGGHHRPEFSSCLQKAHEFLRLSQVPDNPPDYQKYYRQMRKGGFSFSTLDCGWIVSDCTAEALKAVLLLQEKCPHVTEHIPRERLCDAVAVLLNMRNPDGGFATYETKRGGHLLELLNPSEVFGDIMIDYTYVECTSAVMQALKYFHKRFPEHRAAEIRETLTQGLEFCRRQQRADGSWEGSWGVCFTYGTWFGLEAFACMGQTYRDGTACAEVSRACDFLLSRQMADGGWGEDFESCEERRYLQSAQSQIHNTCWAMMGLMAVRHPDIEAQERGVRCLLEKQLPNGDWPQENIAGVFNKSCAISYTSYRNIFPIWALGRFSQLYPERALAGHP
Protocol: Inhibition of Human Liver Microsomal 2,3-Oxidosqualene-lanosterol Cyclase (OSC)
Liver microsomes from a healthy volunteer were prepared in sodium phosphate buffer (pH 7.4). The OSC activity was measured in the same buffer which also contained 1 mM EDTA and 1 mM dithiothreitol. The microsomes were diluted to 0.8 mg/ml protein in cold phosphate buffer. Dry [^14C]R,S-monooxidosqualene (MOS; 12.8 mCi/mmol) was diluted to 20 nCi/μl with ethanol and mixed with phosphate buffer-1% BSA (Bovine Serum Albumin). A stock solution of 1 mM test substance in DMSO was diluted to the desired concentration with phosphate buffer-1% BSA. 40 μl of microsomes were mixed with 20 μl of the solution of the test substance and the reaction was subsequently started with 20 μl of the [^14C]R,S-MOS solution. The final conditions were: 0.4 mg/ml of microsomal proteins and […] of [^14C]R,S-MOS in phosphate buffer, pH 7.4, containing 0.5% albumin, DMSO <0.1% and ethanol <2%, in a total volume of 80 μl.
After 1 hour at 37° C. the reaction was stopped by the addition of 0.6 ml of 10% KOH-methanol, 0.7 ml of water and 0.1 ml of hexane:ether (1:1, v/v) which contained 25 μg of non-radioactive MOS and 25 μg of lanosterol as the carrier. After shaking 1 ml of hexane:ether (1:1, v/v) was added to each test tube, these were again shaken and then centrifuged. The upper phase was transferred into a glass test tube, the lower phase was again extracted with hexane:ether and combined with the first extract. The entire extract was evaporated to dryness with nitrogen and the residue was suspended in 50 μl of hexane:ether and applied to a silica gel plate. Chromatographic separation was effected in hexane:ether (1:1, v/v) as the eluent. […] After drying radioactive MOS and lanosterol were observed on the silica gel plate. The ratio of MOS to lanosterol was determined from the radioactive bands in order to determine the OSC inhibition.
The test was carried out on the one hand with a constant test substance concentration of 100 nM and the percentage OSC inhibition against controls was calculated. In addition, the test was carried out with different test substance concentrations and subsequently the IC50 value was calculated, i.e. the concentration required to reduce the conversion of MOS into lanosterol to 50% of the control value.

plasma cholesterol = assay: Cholesterol lowering in fat-fed hamsters; assay type: in vivo; conditions: fat-fed male golden hamsters, treated 10 days, 200 μmol (about 70-120 mg/kg/ay) in diet, percent of the control animals
Protocol: Cholesterol Lowering in Fat-fed Hamsters. Male golden hamsters kept individually were pre-treated for 7 days with a diet containing grated coconut (40 cal. % fat). The animals were then divided into groups each comprising 5 animals. During the treatment the animals were maintained on the same diet. Each test substance was firstly homogenized in 9 ml of water and subsequently mixed with the milled diet. The controls received only feed converted into a paste with water. The animals were treated for 10 days with a test substance dosage of 200 μmol (about 70-120 mg/kg/ay). Blood samples (200 μl) were removed via the jugular vein under light anaesthesia on the last day of the pre-treatment and one day after the last administration of test substance. The plasma cholesterol concentration was determined using a calorimetric enzyme method. The plasma lipoproteins were separated by exclusion chromatography ([…] et al., Science Tools, 36, 1992, 10-12). The total cholesterol was determined in each fraction using a fluorometric enzyme method (Gamble et al., J. Lipid Res., 19, 1978, 1068-1071) in order to calculate the amount of cholesterol in the LDL and HDL fractions. The activity on plasma cholesterol and LDL and HDL cholesterol, expressed in percent of the control animals, for the products of Examples 8a and 12 is reproduced in the following Table: […]

Candida albicans = assay: Antifungal activity in vitro, microdilution method; assay type: cell-based; conditions: growth inhibition
Protocol: (§1) Antifungal Activity In Vitro The compounds were tested for antifungal activity against Candida albicans, Cryptococcus neoformans and Aspergillus fumigatus using a microdilution method on microtitre plates (96 wells per plate). Yeast supplemented with 1% glucose and 0.25% di-potassium phosphate was used for the three fungal strains. The fungal cells were inoculated at 3×10^4 CFU (Colony Forming Unit) in […] of medium per well. The medium contained increasing concentrations of test substance. After incubation at 27° C. for 24 or 48 hours the turbidity in each well was measured by a microtitre plate reader. The growth inhibition was calculated in comparison to a control (without test substance). The IC50 value given in the following Table is the concentration of test substance at which the growth is inhibited by 50%.

Cryptococcus neoformans = assay: Antifungal activity in vitro, microdilution method; assay type: cell-based; conditions: growth inhibition, incubation at 27° C. for 48 hours, read-out: IC50 (mg/ml) for: C. neoformans after: 48 hours
Protocol: as §1

Aspergillus fumigatus = assay: Antifungal activity in vitro, microdilution method; assay type: cell-based; conditions: growth inhibition, incubation at 27° C. for 48 hours, read-out: IC50 (mg/ml) for: A. fumigatus after: 48 hours
Protocol: as §1

[2] = constant test substance concentration of 100 nM, 1 hour at 37° C., against controls
[3] = incubation at 27° C. for 24 hrs., read-out: IC50 (mg/ml) for: C. albicans after: 24 hrs.
[4] = incubation at 27° C. for 48 hrs., read-out: IC50 (mg/ml) for: C. albicans after: 48 hrs.

SMILES	IC50 [1]	Inhibition of OSC (%) [1, 2]	HDL cholesterol (plasma cholesterol)	LDL cholesterol (plasma cholesterol)	Total cholesterol (plasma cholesterol)	inhibition at 0.1 µM [1, 2]	IC50 (Candida albicans; [3])	IC50 (Candida albicans; [4])	IC50 (Cryptococcus neoformans)	IC50 (Aspergillus fumigatus)
C=CCN(C)C/C=C/COc1ccc(C(C)(O)c2ccc(Br)cc2)cc1 (racemic) [Example 8a, (E)-(RS)-1-[4-[4-(allyl-methyl-amino)-but-2-enyloxy]-phenyl]-(4-bromo-phenyl)-ethanol]	18 nM	82%	−18%	−51%	−30%	–	–	–	–	–
CN(C/C=C/COc1ccc(C(=O)c2ccc(Br)cc2)cc1)C1CC1 [Example 12, (E)-(4-bromo-phenyl)-[4-[4-(cyclopropyl-methyl-amino)-but-2-enyloxy]-phenyl]-methanone]	19 nM	–	−23%	−54%	−25%	84%	–	–	–	–
C=CCN(C)C/C=C/CNc1ccc(C(=O)c2ccc(Br)cc2)cc1F [Example 29]	4.5 nM	–	–	–	–	91%	0.00071 mg/mL (≈ 1.7 µM)	0.021 mg/mL (≈ 50.3 µM)	< 0.00032 mg/mL	0.00071 mg/mL (≈ 1.7 µM)
C=CCN(C)CCCCCCOc1ccc(C(=O)c2ccc(Br)cc2)c(N)c1 [Example 36, [2-amino-4-[6-(allyl-methyl-amino)-hexyloxy]-phenyl]-(4-bromo-phenyl)-methanone]	8.9 nM	–	–	–	–	92%	< 0.00032 mg/mL	0.0011 mg/mL (≈ 2.47 µM)	< 0.00032 mg/mL	0.0024 mg/mL (≈ 5.39 µM)
C=CCN(C)CCCCCCOc1ccc(C(=O)c2ccc(Br)cc2)nc1 [Example 43b, [5-[6-(allyl-methyl-amino)-hexyloxy]-pyridin-2-yl]-(4-bromo-phenyl)-methanone]	–	–	–	–	–	–	< 0.00032 mg/mL	0.005 mg/mL (≈ 11.6 µM)	< 0.00032 mg/mL	0.0064 mg/mL (≈ 14.8 µM)
C=CCN(C)C/C=C(\C)CC/C=C(\C)CCC(=O)CCC=C(C)C [Example 54b, (9E,13E)-15-(allyl-methyl-amino)-2,9,13-trimethyl-pentadeca-2,9,13-trien-6-one]	–	–	–	–	–	73%	< 0.00032 mg/mL	0.0065 mg/mL (≈ 19.6 µM)	0.00069 mg/mL (≈ 2.08 µM)	0.0061 mg/mL (≈ 18.4 µM)
